The target of one test is T1, OAT2r (Rattus norvegicus, UniProt Q5RLM2).
T1 construct: expressed in transfected cells
T1 sequence (Q5RLM2 1-535): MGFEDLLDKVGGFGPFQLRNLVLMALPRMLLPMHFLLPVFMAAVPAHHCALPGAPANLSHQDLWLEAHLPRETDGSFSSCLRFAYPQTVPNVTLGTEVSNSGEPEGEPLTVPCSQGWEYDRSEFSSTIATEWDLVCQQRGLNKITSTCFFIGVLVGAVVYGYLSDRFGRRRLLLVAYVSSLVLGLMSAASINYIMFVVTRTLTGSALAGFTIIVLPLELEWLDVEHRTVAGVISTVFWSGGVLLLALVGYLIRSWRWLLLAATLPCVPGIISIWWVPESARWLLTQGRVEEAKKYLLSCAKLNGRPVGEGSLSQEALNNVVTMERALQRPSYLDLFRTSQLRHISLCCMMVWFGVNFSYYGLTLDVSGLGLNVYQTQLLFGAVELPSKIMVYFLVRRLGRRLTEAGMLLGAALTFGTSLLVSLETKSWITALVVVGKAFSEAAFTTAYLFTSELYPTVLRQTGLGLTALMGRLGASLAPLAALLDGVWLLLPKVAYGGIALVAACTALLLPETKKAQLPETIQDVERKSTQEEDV
As to the kind of experiment: 1 min uptake into 293 cells expressing OAT2 from rat.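 For all read-outs here: uptake at 37 °C, read by liquid scintillation counting or LC-ESI-MS/MS, carrier-mediated part as induced-minus-uninduced expression difference corrected for baseline content, protein by BCA assay.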 The class given is cell-based. Particulars: for clearance: 1 min uptake, 0.1 μmol/l radiotracer; for uptake after preloading with orotic acid (factor f): 1 h preincubation ±100 μmol/l unlabeled orotic acid, 3H-orotic acid 0.1 μmol/l 1 min, trigonelline 10 μmol/l 5 min.

In the next test the target is T2, OAT1h (Homo sapiens, UniProt Q4U2R8).
T2 construct: expressed in transfected cells; host or cells: 293 cells (HEK-293), pEBTetD plasmid, doxycycline-inducible
T2 sequence (Q4U2R8 1-550 isoform Q4U2R8-2): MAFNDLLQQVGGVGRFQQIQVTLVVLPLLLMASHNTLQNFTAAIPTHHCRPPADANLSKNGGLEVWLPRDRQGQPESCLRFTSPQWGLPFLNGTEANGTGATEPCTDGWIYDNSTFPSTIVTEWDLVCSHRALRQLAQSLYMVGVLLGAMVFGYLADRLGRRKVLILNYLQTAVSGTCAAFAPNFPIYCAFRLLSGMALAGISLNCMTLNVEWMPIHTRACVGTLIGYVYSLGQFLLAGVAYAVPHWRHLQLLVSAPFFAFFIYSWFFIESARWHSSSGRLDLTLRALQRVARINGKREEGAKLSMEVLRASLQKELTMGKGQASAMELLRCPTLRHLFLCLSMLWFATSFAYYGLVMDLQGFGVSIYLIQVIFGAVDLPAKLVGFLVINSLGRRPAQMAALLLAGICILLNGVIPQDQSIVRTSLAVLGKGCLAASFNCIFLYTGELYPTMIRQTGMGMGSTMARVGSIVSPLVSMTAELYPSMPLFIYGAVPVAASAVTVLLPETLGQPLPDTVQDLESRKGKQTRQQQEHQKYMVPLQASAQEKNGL
The test can be described thus: uptake/accumulation in 293 cells expressing OAT1h. It is filed as cell-based. The conditions noted are these: for clearance: 1 min uptake, 0.1 μmol/l radiotracer. As to the method:
The trigonelline content of cell lysates was determined by LC-MS/MS. […] 293 cells transfected with pEBTetD plasmids for the expression of SLC22 family carriers as indicated were grown in dishes and incubated overnight with (expression on) or without (off) doxycyclin in standard culture medium. Cells were washed with uptake buffer, incubated (1 min, 37° C.) in uptake buffer with or without 10 μmol/l unlabeled trigonelline, washed, and lysed.
For measurement of solute uptake, cells were grown in surface culture on 60 mm polystyrol dishes (Nunclon 150288, Nunc, Roskilde, Denmark) precoated with 0.1 g/l poly-L-ornithine in 0.15 M boric acid-NaOH, pH 8.4. Cells were used for uptake experiments at a confluence of at least 70%. Uptake was measured at 37° C. Uptake buffer contains 125 mmol/l NaCl, 25 mmol/l HEPES-NaOH pH 7.4, 5.6 mmol/l (+)glucose, 4.8 mmol/l KCl, 1.2 mmol/l KH2PO4, 1.2 mmol/l CaCl2, and 1.2 mmol/l MgSO4. In glutamate efflux experiments, uptake buffer without KH2PO4 was used to avoid MS interference. After preincubation for at least 20 minutes in 4 ml of uptake buffer, the buffer was replaced with 2 ml of substrate in uptake buffer. The total substrate concentration if not indicated otherwise was 0.1 μmol/l for radiotracer assays and 10 μmol/l for unlabeled compounds. Incubation was stopped after 1 min by rinsing the cells four times each with 4 ml ice-cold uptake buffer. Radioactivity was determined, after cell lysis with 0.1% v/v Triton X-100 in 5 mmol/l TRIS-HCl pH 7.4, by liquid scintillation counting. For LCelectrospray ionization-MS/MS analysis, cells were lysed with methanol and stored at −20° C.
After centrifugation (1 min, 16000×g, 20° C.) of thawed lysates, 100 μl of the supernatant was mixed with either 10 μl unlabeled MPP+ iodide (0.5 ng/μl) or biphenyl-4-carboxylic acid (Sigma-Aldrich) as internal standard. Of this mixture, […] were analyzed by LCMS/MS on a triple quadrupole mass spectrometer (4000 Q TRAP, Applied Biosystems, Darmstadt, Germany). […] For quantification (scan time 150 ms), the optimal collision energy for argon-induced fragmentation in the second quadrupole was determined for each analyte. […] Sample analyte content was calculated from the analyte response ratio and the slope of the calibration curve, obtained by linear regression. With LC-MS quantitation, solute content of cell lysates was determined for 4 conditions (paired dishes, incubation time 1 min): a) transporter expression on, uptake buffer; b) expression off, uptake buffer; c) expression on, substrate in uptake buffer; d) expression off, substrate in uptake buffer. Acute uptake mediated by heterologously expressed carrier was then calculated as (c−a)−(d−b). […] Protein was measured by the BCA assay (Pierce) with bovine serum albumin as standard. […]

The structures appear in SMILES notation. Where “and” joins values, the source holds several entries; their conditions need not be identical. Identical values can stand only once.

Description for OAT2r: Cells were used for uptake experiments at a confluence of at least 70%. Uptake was measured at 37° C. […] After preincubation for at least 20 minutes in 4 ml of uptake buffer, the buffer was replaced with 2 ml of substrate in uptake buffer. The total substrate concentration if not indicated otherwise was 0.1 μmol/l for radiotracer assays and 10 μmol/l for unlabeled compounds. Incubation was stopped after 1 min by rinsing the cells four times each with 4 ml ice-cold uptake buffer. Radioactivity was determined, after cell lysis with 0.1% v/v Triton X-100 in 5 mmol/l TRIS-HCl pH 7.4, by liquid scintillation counting. For LCelectrospray ionization-MS/MS analysis, cells were lysed with methanol and stored at −20° C.
After centrifugation (1 min, 16000×g, 20° C.) of thawed lysates, 100 μl of the supernatant was mixed with either 10 μl unlabeled MPP+ iodide (0.5 ng/μl) or biphenyl-4-carboxylic acid (Sigma-Aldrich) as internal standard. […] Atmospheric pressure ionization with positive or negative electrospray was used. For quantification (scan time 150 ms), the optimal collision energy for argon-induced fragmentation in the second quadrupole was determined for each analyte. […] Linear calibration curves were constructed from at least six standards which were prepared using control cell lysates as solvent. Sample analyte content was calculated from the analyte response ratio and the slope of the calibration curve, obtained by linear regression. With LC-MS quantitation, solute content of cell lysates was determined for 4 conditions (paired dishes, incubation time 1 min): a) transporter expression on, uptake buffer; b) expression off, uptake buffer; c) expression on, substrate in uptake buffer; d) expression off, substrate in uptake buffer. Acute uptake mediated by heterologously expressed carrier was then calculated as (c−a)−(d−b). This approach takes into account endogenous solute content and non-specific uptake. Protein was measured by the BCA assay (Pierce) with bovine serum albumin as standard. The protein content of MS samples was estimated from 3 matched cell dishes.

With `N[C@@H](CCC(=O)O)C(=O)O` [glutamate], the clearance on OAT2r (sodium-free buffer) came out at 24±1 μl min-1 mg protein-1; on OAT2r (standard uptake buffer) it was 35±3 μl min-1 mg protein-1; on OAT1h, 2.5±0.4 μl min-1 mg protein-1. In addition, the “transport of glutamate (in words)” value at OAT1h is recorded as “do not transport”.

Turning to `O=C(O)c1cc(=O)[nH]c(=O)[nH]1` [orotic acid], the clearance on OAT2r (standard uptake buffer) was 106±4 μl min-1 mg protein-1 and 106 μl min-1 mg protein-1; at OAT1h, 1.6±0.1 μl min-1 mg protein-1. In addition, the “uptake after preloading with orotic acid (factor f)” value on OAT2r was found to be 0.7. Besides, the “factor of uptake reduction on average” value at OAT2r (sodium chloride replaced by choline, lithium or potassium chloride, or magnesium and calcium omitted) is listed as 0.75.

On to `C[n+]1cccc(C(=O)[O-])c1` [trigonelline], for which the “uptake after preloading with orotic acid (factor f)” value at OAT2r came to 0.7. At OAT2r (initial rate 1 min, 37° C., 10 μmol/l, LC-MS/MS, uptake buffer in the expression period), the carrier-mediated clearance is reported as 4.8±0.5 μl min-1 mg protein-1. For the same compound, on OAT1h (expression of OAT1 in 293 cells, FIG. 14), the “accumulation of trigonelline upon carrier expression (in words)” value is “without effect”.

For the origin of these results see patent publication US20140090094A1, “MODULATORS OF SLC22A7” (BAYER INTELLECTUAL PROPERTY GmbH, priority 2011, published 2014).
